A short description of the data set: Evaluation of pharmacokinetic parameters for metronidazole following topical administration of 7.5 mg of metronidazole (1 g metronidazole topical lotion) for 4 days to the faces of 8 patients. The format is ADME, organism-based. More on the design: dose 7.5 mg, route topical. The conditions noted are these: human, in vivo, topical or ocular, dosed compound id 31, dosed compound name METRONIDAZOLE, gender male and female, regimen Twice daily, study dosing duration 4 days, tissue Plasma.

Structures are written as SMILES.

Turning to `Cc1ncc([N+](=O)[O-])n1CCO` [METRONIDAZOLE], the Cmax (sampling time1 5 days) came out at 96 ng/mL. In addition, where the note is “read-out: AUC(0-24)”, the area under the curve (AUC) at 96 h was 962 ng·h/mL.

As usually defined, the Cmax is the peak of the concentration-time curve. A word on the AUC: it is the area under the concentration-time curve, a measure of exposure.

Values taken from ChEMBL document CHEMBL3832051, “DailyMed|setid=970a767a-7a65-4cdf-84fe-4dbe0a77b80a | METRONIDAZOLE - metronidazole lotion|Physicians Total Care, Inc”.
